Experimental data: patent US20150218652A1, “METHODS FOR DIAGNOSIS AND TREATMENT OF CANCER” (THE REGENTS OF THE UNVERSITY OF COLORADO, a body corporate, priority 2012, published 2015)
Where two headings read alike, the source gives them in different places.

Experiments:
[1] = tested on: KM12 cells harboring the TPM3-NTRK1 fusion; test: MTS proliferation assay of KM12 cells; type: cell-based
Protocol: KM12 cells harboring the TPM3-NTRK1 fusion were lysed following 5 h treatment with the indicated doses of inhibitors and subject to immunoblot analysis (n=3).
Proliferation of KM12 cells treated with the indicated drugs and doses were assayed for cell proliferation by MTS assay.

[2] = tested on: CUTO-3 cells harboring the NTRK1-MPRIP gene fusion; test: Immunoblot analysis of CUTO-3 cells; type: cell-based
From the text: Colorado University Thoracic Oncology (CUTO) 3 cells were derived from a pleural effusion from the index patient harboring the NTRK1-MPRIP gene fusion.

[3] = tested on: Ba/F3 cells expressing NTRK1-MPRIP; test: MTS proliferation assay of Ba/F3 cells expressing NTRK1-MPRIP; type: cell-based; conditions: n=5
From the text: (§1) The half maximal inhibitory concentration (IC50) values are listed (nM).

[4] = biological target: T1, TRKA (Homo sapiens, UniProt P04629); test: Immunoprecipitation of TRKA-HA from 293T cells and anti-phosphotyrosine immunoblot; type: cell-based; conditions: 293T cells, 1 μM, 5 hours, vs DMSO control
T1 construct: the inventors expressed full length TRKA in 293T cells; expressed in transfected cells; host or cells: 293T cells, transient transfection of pCDH-MCS1-EF1-puro carrying NTRK1-HA
T1 sequence (P04629 33-796): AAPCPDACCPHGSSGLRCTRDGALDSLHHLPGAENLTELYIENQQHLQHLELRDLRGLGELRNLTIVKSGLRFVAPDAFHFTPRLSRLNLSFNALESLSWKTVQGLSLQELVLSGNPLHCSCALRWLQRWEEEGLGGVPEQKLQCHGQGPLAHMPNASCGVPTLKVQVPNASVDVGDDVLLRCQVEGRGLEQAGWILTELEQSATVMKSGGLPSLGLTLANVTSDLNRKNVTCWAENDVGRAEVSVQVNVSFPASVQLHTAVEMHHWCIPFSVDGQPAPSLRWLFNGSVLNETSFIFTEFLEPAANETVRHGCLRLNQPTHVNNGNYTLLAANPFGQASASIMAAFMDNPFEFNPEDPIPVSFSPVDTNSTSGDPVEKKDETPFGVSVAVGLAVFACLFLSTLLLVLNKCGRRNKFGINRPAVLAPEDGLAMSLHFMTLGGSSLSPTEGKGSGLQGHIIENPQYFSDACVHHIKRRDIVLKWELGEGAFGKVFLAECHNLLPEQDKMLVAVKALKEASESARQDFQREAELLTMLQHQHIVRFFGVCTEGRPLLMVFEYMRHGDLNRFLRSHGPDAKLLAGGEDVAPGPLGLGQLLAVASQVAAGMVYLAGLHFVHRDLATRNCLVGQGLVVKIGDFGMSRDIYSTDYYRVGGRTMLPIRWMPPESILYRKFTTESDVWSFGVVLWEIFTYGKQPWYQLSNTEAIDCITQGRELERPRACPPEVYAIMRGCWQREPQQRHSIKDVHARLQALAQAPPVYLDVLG

[5] = biological target: T1, TRKA; test: Immunoblot of 293T cell lysates expressing TRKA-HA: TRKA and downstream signaling; type: cell-based; conditions: 293T cells, 1 μM, 5 hours, presence or absence of NGF
[6] = tested on: Ba/F3 cells expressing NTRK1 fusions; test: MTS proliferation assay of Ba/F3 cells expressing NTRK1 fusions; type: cell-based; conditions: n=5, similar to Ba/F3 cells expressing ALK or ROS1 fusion constructs
From the text: as §1

[7] = tested on: ROS1 gene fusions; conditions: lung cancer patients harboring ROS1 gene fusions; cited from earlier work

Row | SMILES | inhibition of proliferation of KM12 cells [1] | inhibition of pERK [2] | inhibition of pTRKA [2] | inhibition of proliferation [3] | inhibition of proliferation of KM12 cells ([1]; MTS assay) | Phosphorylation of TRKA (anti-phosphotyrosine 4G10 after HA immunoprecipitation) [4] | phosphorylation of AKT [5] | phosphorylation of ERK [5] | phosphorylation of TRKA (phosphotyrosine 490, 674, 675) [5] | inhibition of cell proliferation of Ba/F3 expressing NTRK1 fusions [6] | patient response [7]
1 | O=C(Nc1cnn2ccc(N3CCC[C@@H]3c3cc(F)ccc3F)nc12)N1CC[C@H](O)C1 [ARRY-470] | inhibited | inhibition | inhibition | inhibition of proliferation | – | – | – | – | – | – | –
2 | C[C@]12O[C@H](C[C@]1(O)CO)n1c3ccccc3c3c4c(c5c6ccccc6n2c5c31)CNC4=O [CEP-701] | – | – | – | inhibition of proliferation | inhibited | significantly reduced | inhibited phosphorylation | inhibited phosphorylation | inhibited phosphorylation | – | –
3 | C[C@@H](Oc1cc(-c2cnn(C3CCNCC3)c2)cnc1N)c1c(Cl)ccc(F)c1Cl [crizotinib] | – | – | – | – | inhibited | – | – | decreased phosphorylation | decreased phosphorylation | inhibition | respond
